Experimental data: PubChem BioAssay (NCI)
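Five compound concentrations were applied to cells in 96-well plates for 48 hours; endpoints were derived by simple linear interpolation of the resulting dose-response curve. GI50 marks 50% less growth. TGI: concentration producing complete growth inhibition.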

Experiments:
Experiment in all cases: NCI tumour cell line growth inhibition, 48 h
SK-OV-3 ovarian = system: SK-OV-3 ovarian
SF-539 CNS = system: SF-539 CNS
RXF 393 renal = system: RXF 393 renal
SK-MEL-5 melanoma = system: SK-MEL-5 melanoma
CCRF-CEM leukemia = system: CCRF-CEM leukemia
HL-60(TB) leukemia = system: HL-60(TB) leukemia
MDA-MB-435 = system: MDA-MB-435
U251 CNS = system: U251 CNS
SK-MEL-28 melanoma = system: SK-MEL-28 melanoma
SW-620 colon = system: SW-620 colon

## Cc1ccn2c(-c3csc(Nc4cccc(O)c4)n3)c(C)nc2c1
SK-OV-3 ovarian
  GI50: 1.04 µM
  TGI: 11.8 µM
SF-539 CNS
  GI50: 0.498 µM
  TGI: 3.75 µM
RXF 393 renal
  GI50: 1.27 µM
  TGI: 7.26 µM
SK-MEL-5 melanoma
  GI50: 0.478 µM
  TGI: 11.1 µM
CCRF-CEM leukemia
  GI50: 0.48 µM
  TGI: > 33 µM
HL-60(TB) leukemia
  GI50: 0.343 µM
  TGI: 22.1 µM
MDA-MB-435
  GI50: 0.059 µM
  TGI: 0.281 µM
U251 CNS
  GI50: 0.681 µM
  TGI: 10.3 µM
SK-MEL-28 melanoma
  GI50: 1.51 µM
  TGI: 36.3 µM
SW-620 colon
  GI50: 0.337 µM
  TGI: 26.8 µM

## [CH3][Sn]([CH3])([CH3])[O]C(=O)C(O)c1ccccc1 (stereo unspecified)
SK-OV-3 ovarian
  GI50: 10.1 µM
  TGI: 47.2 µM
SF-539 CNS
  GI50: 5.9 µM
  TGI: 29.2 µM
RXF 393 renal
  GI50: 3 µM
  TGI: 7.43 µM
SK-MEL-5 melanoma
  GI50: 1.83 µM
  TGI: 3.35 µM
CCRF-CEM leukemia
  GI50: 4.84 µM
  TGI: > 73.5 µM
HL-60(TB) leukemia
  GI50: 4.75 µM
  TGI: > 40.5 µM
MDA-MB-435
  GI50: 3.52 µM
  TGI: 14.8 µM
U251 CNS
  GI50: 5.84 µM
  TGI: > 95.3 µM
SK-MEL-28 melanoma
  GI50: 8.55 µM
  TGI: > 100 µM
SW-620 colon
  GI50: 5.13 µM
  TGI: > 100 µM

## N#Cc1ccc(N2Cc3cc(Cl)ccc3OC3=C2C(=O)N(Cc2ccc(F)cc2)C3=O)cc1
SK-OV-3 ovarian
  GI50: 16.2 µM
  TGI: 55.7 µM
SF-539 CNS
  GI50: 0.557 µM
  TGI: 1.07 µM
RXF 393 renal
  GI50: 0.481 µM
  TGI: 0.943 µM
SK-MEL-5 melanoma
  GI50: 1.26 µM
  TGI: 2.94 µM
CCRF-CEM leukemia
  GI50: 0.229 µM
  TGI: 1.09 µM
HL-60(TB) leukemia
  GI50: 0.23 µM
  TGI: 0.469 µM
MDA-MB-435
  GI50: 0.607 µM
  TGI: 1.44 µM
U251 CNS
  GI50: 0.672 µM
  TGI: 1.68 µM
SK-MEL-28 melanoma
  GI50: 0.558 µM
  TGI: 1.13 µM
SW-620 colon
  GI50: 0.411 µM
  TGI: 1.02 µM

## CC(=O)NC1CCCN(O)C(=O)/C=C(/C)CCOC(=O)C(NC(C)=O)CCCN(O)C(=O)/C=C(/C)CCOC(=O)C(NC(C)=O)CCCN(O)C(=O)/C=C(/C)CCOC1=O.[Fe] (stereo unspecified)
SF-539 CNS
  GI50: > 100 µM
  TGI: > 100 µM
SK-MEL-5 melanoma
  GI50: > 100 µM
  TGI: > 100 µM
CCRF-CEM leukemia
  GI50: > 100 µM
  TGI: > 100 µM
HL-60(TB) leukemia
  GI50: > 100 µM
  TGI: > 100 µM
MDA-MB-435
  GI50: > 100 µM
  TGI: > 100 µM
U251 CNS
  GI50: > 100 µM
  TGI: > 100 µM
SK-MEL-28 melanoma
  GI50: > 100 µM
  TGI: > 100 µM
SW-620 colon
  GI50: > 100 µM
  TGI: > 100 µM

## Nc1cccc2c1CN(C1CCC(=O)NC1=O)C2=O (stereo unspecified)
SK-OV-3 ovarian
  GI50: > 100 µM
  TGI: > 100 µM
SF-539 CNS
  GI50: > 100 µM
  TGI: > 100 µM
RXF 393 renal
  GI50: > 100 µM
  TGI: > 100 µM
SK-MEL-5 melanoma
  GI50: > 100 µM
  TGI: > 100 µM
CCRF-CEM leukemia
  GI50: > 100 µM
  TGI: > 100 µM
HL-60(TB) leukemia
  GI50: > 100 µM
  TGI: > 100 µM
MDA-MB-435
  GI50: > 100 µM
  TGI: > 100 µM
U251 CNS
  GI50: > 100 µM
  TGI: > 100 µM
SK-MEL-28 melanoma
  GI50: > 100 µM
  TGI: > 100 µM
SW-620 colon
  GI50: > 100 µM
  TGI: > 100 µM

## O=S1CCN(Cc2ccc(-c3ccc4ncnc(Nc5ccc(OCc6ccccc6)c(F)c5)c4c3)o2)CC1
SK-OV-3 ovarian
  GI50: 0.0713 µM
  TGI: 0.226 µM
SF-539 CNS
  GI50: 5.84 µM
  TGI: 15.1 µM
RXF 393 renal
  GI50: 4.45 µM
  TGI: 13.2 µM
SK-MEL-5 melanoma
  GI50: 3.44 µM
  TGI: 7 µM
CCRF-CEM leukemia
  GI50: 8.82 µM
  TGI: > 25 µM
HL-60(TB) leukemia
  GI50: 8.32 µM
  TGI: 18.6 µM
MDA-MB-435
  GI50: 7.21 µM
  TGI: > 24.2 µM
U251 CNS
  GI50: 13.9 µM
  TGI: > 25 µM
SK-MEL-28 melanoma
  GI50: 6.8 µM
  TGI: > 20.5 µM
SW-620 colon
  GI50: 10.8 µM
  TGI: > 25 µM
